The results in this text go back to ChEMBL document CHEMBL1833794, “Synthesis and biological evaluation of 1-substituted-3-(6-methylpyridin-2-yl)-4-([1,2,4]triazolo[1,5-a]pyridin-6-yl)pyrazoles as transforming growth factor-β type 1 receptor kinase inhibitors” (Bioorg Med Chem Lett, 2011).

As usually defined, the bioavailability is dose-corrected exposure relative to a reference, in per cent.

Conditions in all cases: in vivo
A short description of data set [1]: Oral bioavailability in dog at 5.5 mg/kg. Type of data set: ADME, organism-based, Canis lupus familiaris.
Data set [2] in a line: Oral bioavailability in rhesus monkey at 5.5 mg/kg. The class given is ADME, organism-based, Macaca mulatta.
The nature of data set [3]: Oral bioavailability in rat at 50.3 mg/kg. Type of data set: ADME, organism-based.
Data set [4] can be described thus: Oral bioavailability in mouse at 50.3 mg/kg. Type of data set: ADME, organism-based.

For `Cc1cccc(-c2[nH]c(Cc3cccc(C(N)=O)c3)nc2-c2ccc3nccnc3c2)n1`, the bioavailability was determined as 84.9% in data set [1], 34.4% in data set [2], 11.4% in data set [3] and 8.95% in data set [4].
